Measurements from PubChem BioAssay (NCI).
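Following 48 hours of exposure in 96-well plates, responses at five concentrations were used to interpolate endpoints linearly. TGI: concentration producing complete growth inhibition.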

Columns and labels:
Experiment in all cases: NCI-60 cell line screen, 48 h
786-0 renal = system: 786-0 renal
A498 renal = system: A498 renal
A549 NSCLC = system: A549 NSCLC
ACHN renal = system: ACHN renal
CAKI-1 renal = system: CAKI-1 renal
CCRF-CEM leukemia = system: CCRF-CEM leukemia
COLO 205 colon = system: COLO 205 colon
DLD-1 colon = system: DLD-1 colon
DMS 114 small cell lung = system: DMS 114 small cell lung
DMS 273 small cell lung = system: DMS 273 small cell lung
EKVX NSCLC = system: EKVX NSCLC
HCC-2998 colon = system: HCC-2998 colon
HCT-116 colon = system: HCT-116 colon
HCT-15 colon = system: HCT-15 colon
HL-60(TB) leukemia = system: HL-60(TB) leukemia
HOP-18 NSCLC = system: HOP-18 NSCLC
HOP-62 NSCLC = system: HOP-62 NSCLC
HOP-92 NSCLC = system: HOP-92 NSCLC
HT29 colon = system: HT29 colon
IGROV1 ovarian = system: IGROV1 ovarian
K-562 leukemia = system: K-562 leukemia
KM12 colon = system: KM12 colon
KM20L2 colon = system: KM20L2 colon
LOX IMVI melanoma = system: LOX IMVI melanoma
LXFL 529 NSCLC = system: LXFL 529 NSCLC
M14 melanoma = system: M14 melanoma
M19-MEL melanoma = system: M19-MEL melanoma
MALME-3M melanoma = system: MALME-3M melanoma
MOLT-4 leukemia = system: MOLT-4 leukemia
NCI-H226 lung = system: NCI-H226 lung
NCI-H23 lung = system: NCI-H23 lung
NCI-H460 lung = system: NCI-H460 lung
NCI-H522 lung = system: NCI-H522 lung
OVCAR-3 ovarian = system: OVCAR-3 ovarian
OVCAR-4 ovarian = system: OVCAR-4 ovarian
OVCAR-5 ovarian = system: OVCAR-5 ovarian
OVCAR-8 ovarian = system: OVCAR-8 ovarian
RPMI-8226 leukemia = system: RPMI-8226 leukemia
RXF 393 renal = system: RXF 393 renal
SF-268 CNS = system: SF-268 CNS
SF-295 CNS = system: SF-295 CNS
SF-539 CNS = system: SF-539 CNS
SK-MEL-28 melanoma = system: SK-MEL-28 melanoma
SK-MEL-5 melanoma = system: SK-MEL-5 melanoma
SK-OV-3 ovarian = system: SK-OV-3 ovarian
SN12C renal = system: SN12C renal
SNB-19 CNS = system: SNB-19 CNS
SNB-75 CNS = system: SNB-75 CNS
SNB-78 CNS = system: SNB-78 CNS
SR leukemia = system: SR leukemia
SW-620 colon = system: SW-620 colon
TK-10 renal = system: TK-10 renal
U251 CNS = system: U251 CNS
UACC-257 melanoma = system: UACC-257 melanoma
UACC-62 melanoma = system: UACC-62 melanoma
UO-31 renal = system: UO-31 renal
XF 498 CNS = system: XF 498 CNS

Q: CC1CC(c2ccc([N+](=O)[O-])cc2)=Nc2ccccc2S1 (configuration not stated) was tested. Which TGI (786-0 renal) did it give?
A: 29.5 µM

Q: What about the TGI (A498 renal) of the same molecule?
A: 36.1 µM

Q: What about the TGI (A549 NSCLC) of the same molecule?
A: 60.1 µM

Q: What about the TGI (ACHN renal) of the same molecule?
A: 44.2 µM

Q: And the TGI (CAKI-1 renal)?
A: 83.5 µM

Q: What about the TGI (CCRF-CEM leukemia) of the same molecule?
A: 39.1 µM

Q: What about the TGI (COLO 205 colon) of the same molecule?
A: 55.1 µM

Q: What about the TGI (DLD-1 colon) of the same molecule?
A: 25.5 µM

Q: And the TGI (DMS 114 small cell lung)?
A: 36.6 µM

Q: And the TGI (DMS 273 small cell lung)?
A: 41.7 µM

Q: And the TGI (EKVX NSCLC)?
A: 48.6 µM

Q: And the TGI (HCC-2998 colon)?
A: 38.1 µM

Q: And the TGI (HCT-116 colon)?
A: 3.56 µM

Q: And the TGI (HCT-15 colon)?
A: 29.3 µM

Q: What about the TGI (HL-60(TB) leukemia) of the same molecule?
A: 36.4 µM

Q: And the TGI (HOP-18 NSCLC)?
A: > 100 µM

Q: And the TGI (HOP-62 NSCLC)?
A: > 100 µM

Q: What about the TGI (HOP-92 NSCLC) of the same molecule?
A: 89.7 µM

Q: And the TGI (HT29 colon)?
A: 26.3 µM

Q: And the TGI (IGROV1 ovarian)?
A: 35.4 µM

Q: What about the TGI (K-562 leukemia) of the same molecule?
A: 40.3 µM

Q: What about the TGI (KM12 colon) of the same molecule?
A: 25.3 µM

Q: And the TGI (KM20L2 colon)?
A: 36.6 µM

Q: What about the TGI (LOX IMVI melanoma) of the same molecule?
A: 20.6 µM

Q: And the TGI (LXFL 529 NSCLC)?
A: 26 µM

Q: What about the TGI (M14 melanoma) of the same molecule?
A: 27.2 µM

Q: What about the TGI (M19-MEL melanoma) of the same molecule?
A: 26.7 µM

Q: And the TGI (MALME-3M melanoma)?
A: > 100 µM

Q: What about the TGI (MOLT-4 leukemia) of the same molecule?
A: 63.6 µM

Q: What about the TGI (NCI-H226 lung) of the same molecule?
A: 46.6 µM

Q: What about the TGI (NCI-H23 lung) of the same molecule?
A: 34.2 µM

Q: What about the TGI (NCI-H460 lung) of the same molecule?
A: > 100 µM

Q: And the TGI (NCI-H522 lung)?
A: 41.9 µM

Q: What about the TGI (OVCAR-3 ovarian) of the same molecule?
A: 23.7 µM

Q: What about the TGI (OVCAR-4 ovarian) of the same molecule?
A: 43.9 µM

Q: What about the TGI (OVCAR-5 ovarian) of the same molecule?
A: 76.1 µM

Q: What about the TGI (OVCAR-8 ovarian) of the same molecule?
A: > 100 µM

Q: What about the TGI (RPMI-8226 leukemia) of the same molecule?
A: 7.21 µM

Q: And the TGI (RXF 393 renal)?
A: 32 µM

Q: What about the TGI (SF-268 CNS) of the same molecule?
A: 38.9 µM

Q: What about the TGI (SF-295 CNS) of the same molecule?
A: 45.3 µM

Q: And the TGI (SF-539 CNS)?
A: 32.9 µM

Q: What about the TGI (SK-MEL-28 melanoma) of the same molecule?
A: 32.2 µM

Q: And the TGI (SK-MEL-5 melanoma)?
A: 42.4 µM

Q: What about the TGI (SK-OV-3 ovarian) of the same molecule?
A: 31 µM

Q: What about the TGI (SN12C renal) of the same molecule?
A: 35.1 µM

Q: What about the TGI (SNB-19 CNS) of the same molecule?
A: 39.5 µM

Q: What about the TGI (SNB-75 CNS) of the same molecule?
A: > 100 µM

Q: And the TGI (SNB-78 CNS)?
A: > 100 µM

Q: What about the TGI (SR leukemia) of the same molecule?
A: 24.9 µM

Q: What about the TGI (SW-620 colon) of the same molecule?
A: 29.6 µM

Q: What about the TGI (TK-10 renal) of the same molecule?
A: 76.1 µM

Q: What about the TGI (U251 CNS) of the same molecule?
A: 28.4 µM

Q: And the TGI (UACC-257 melanoma)?
A: 35.9 µM

Q: What about the TGI (UACC-62 melanoma) of the same molecule?
A: 28.8 µM

Q: And the TGI (UO-31 renal)?
A: 24.9 µM

Q: And the TGI (XF 498 CNS)?
A: 70.7 µM
